Bounds are passed on as bounds.

Drawing on patent US12471596B2 (priority 2019, dated 2025), this text covers inhibition of growth for 27 molecules.

The test system of this experiment is Phytophthora infestans. Description: microbe, parasite or virus in culture. The note with it: in Secale cereale, 168 h, read-out: control compared to the untreated check. In kind it is cell-based.
For `O=C(COc1cncc(C(F)(F)F)n1)N1CCC(c2nc(C3=NOC(c4c(Cl)cccc4C(F)(F)F)C3)cs2)CC1` (stereo not drawn) [Compound 68, 1-(4-(4-(5-(2-chloro-6-(trifluoromethyl)phenyl)-4,5-dihydroisoxazol-3-yl)thiazol-2-yl)piperidin-1-yl)-2-((6-(trifluoromethyl)pyrazin-2-yl)oxy)ethan-1-one], the inhibition of growth at 30 ppm was not below 70%.
As for `O=C(COc1cnc(C(F)(F)F)cn1)N1CCC(c2nc(C3=NOC(c4c(Cl)cccc4C(F)(F)F)C3)cs2)CC1` (stereo not drawn) [Compound 69, 1-(4-(4-(5-(2-chloro-6-(trifluoromethyl)phenyl)-4,5-dihydroisoxazol-3-yl)thiazol-2-yl)piperidin-1-yl)-2-((5-(trifluoromethyl)pyrazin-2-yl)oxy)ethan-1-one], the inhibition of growth at 30 ppm was not below 70%.
Turning to `O=C(COc1nccc(C(F)(F)F)n1)N1CCC(c2nc(C3=NOC(c4c(Cl)ccc(F)c4F)C3)cs2)CC1` (stereo not drawn) [Compound 70, 1-(4-(4-(5-(6-chloro-2,3-difluorophenyl)-4,5-dihydroisoxazol-3-yl)thiazol-2-yl)piperidin-1-yl)-2-((4-(trifluoromethyl)pyrimidin-2-yl)oxy)ethan-1-one], the inhibition of growth at 30 ppm is not below 70%.
As for `COc1cncnc1OCC(=O)N1CCC(c2nc(C3=NOC(c4c(Cl)cccc4C#N)C3)cs2)CC1` (stereo not drawn) [Compound 71, 3-chloro-2-(3-(2-(1-(2-((5-methoxypyrimidin-4-yl)oxy)acetyl)piperidin-4-yl)thiazol-4-yl)-4,5-dihydroisoxazol-5-yl)benzonitrile], the inhibition of growth at 30 ppm is not below 70%.
The figure for `COc1cncnc1OCC(=O)N1CCC(c2nc(C3=NOC(c4c(Cl)cccc4OS(C)(=O)=O)C3)cs2)CC1` (stereo not drawn) [Compound 72, 3-chloro-2-(3-(2-(1-(2-((5-methoxypyrimidin-4-yl)oxy)acetyl)piperidin-4-yl)thiazol-4-yl)-4,5-dihydroisoxazol-5-yl)phenyl methanesulfonate] is not below 70%; for `COc1cncnc1OCC(=O)N1CCC(c2nc(C3=NOC(c4c(Cl)cccc4Cl)C3)cs2)CC1` (stereo not drawn) [Compound 73, 1-(4-(4-(5-(2,6-dichlorophenyl)-4,5-dihydroisoxazol-3-yl)thiazol-2-yl)piperidin-1-yl)-2-((5-methoxypyrimidin-4-yl)oxy)ethan-1-one] it is not below 70%; for `COc1cncnc1OCC(=O)N1CCC(c2nc(C3=NOC(c4c(F)cccc4Cl)C3)cs2)CC1` (stereo not drawn) [Compound 74, 1-(4-(4-(5-(2-chloro-6-fluorophenyl)-4,5-dihydroisoxazol-3-yl)thiazol-2-yl)piperidin-1-yl)-2-((5-methoxypyrimidin-4-yl)oxy)ethan-1-one] it is not below 70%.
As for `COc1cncnc1OCC(=O)N1CCC(c2nc(C3=NOC(c4c(Cl)cc(Cl)cc4Cl)C3)cs2)CC1` (stereo not drawn) [Compound 75, 2-((5-methoxypyrimidin-4-yl)oxy)-1-(4-(4-(5-(2,4,6-trichlorophenyl)-4,5-dihydroisoxazol-3-yl)thiazol-2-yl)piperidin-1-yl)ethan-1-one], the inhibition of growth at 30 ppm was not below 70%.
Consider `COc1cncnc1OCC(=O)N1CCC(c2nc(C3=NOC(c4c(F)cccc4F)C3)cs2)CC1` (stereo not drawn) [Compound 76, 1-(4-(4-(5-(2,6-difluorophenyl)-4,5-dihydroisoxazol-3-yl)thiazol-2-yl)piperidin-1-yl)-2-((5-methoxypyrimidin-4-yl)oxy)ethan-1-one], for which the inhibition of growth at 30 ppm was not below 70%.
As for `COc1cncnc1OCC(=O)N1CCC(c2nc(C3=NOC(c4cc(Cl)ccc4Cl)C3)cs2)CC1` (stereo not drawn) [Compound 77, 1-(4-(4-(5-(2,5-dichlorophenyl)-4,5-dihydroisoxazol-3-yl)thiazol-2-yl)piperidin-1-yl)-2-((5-methoxypyrimidin-4-yl)oxy)ethan-1-one], the inhibition of growth at 30 ppm was not below 70%.
As to `COc1cncnc1OCC(=O)N1CCC(c2nc(C3=NOC(c4c(F)cccc4Br)C3)cs2)CC1` (stereo not drawn) [Compound 78, 1-(4-(4-(5-(2-bromo-6-fluorophenyl)-4,5-dihydroisoxazol-3-yl)thiazol-2-yl)piperidin-1-yl)-2-((5-methoxypyrimidin-4-yl)oxy)ethan-1-one], the inhibition of growth at 30 ppm is not below 70%.
On to `COc1cncnc1OCC(=O)N1CCC(c2nc(C3=NOC(c4c(O)cccc4Cl)C3)cs2)CC1` (stereo not drawn) [Compound 79, 1-(4-(4-(5-(2-chloro-6-hydroxyphenyl)-4,5-dihydroisoxazol-3-yl)thiazol-2-yl)piperidin-1-yl)-2-((5-methoxypyrimidin-4-yl)oxy)ethan-1-one], for which the inhibition of growth at 30 ppm is not below 70%.
For `COc1cncnc1OCC(=O)N1CCC(c2nc(C3=NOC(c4c(Cl)cccc4C(F)(F)F)C3)cs2)CC1` (stereo not drawn) [Compound 80, 1-(4-(4-(5-(2-chloro-6-(trifluoromethyl)phenyl)-4,5-dihydroisoxazol-3-yl)thiazol-2-yl)piperidin-1-yl)-2-((5-methoxypyrimidin-4-yl)oxy)ethan-1-one] the value was not below 70%; for `COc1cncnc1OCC(=O)N1CCC(c2nc(C3=NOC(c4c(Cl)ccc(F)c4F)C3)cs2)CC1` (stereo not drawn) [Compound 81, 1-(4-(4-(5-(6-chloro-2,3-difluorophenyl)-4,5-dihydroisoxazol-3-yl)thiazol-2-yl)piperidin-1-yl)-2-((5-methoxypyrimidin-4-yl)oxy)ethan-1-one], not below 70%.
In the case of `COc1ccnc(OCC(=O)N2CCC(c3nc(C4=NOC(c5c(Cl)cccc5C(F)(F)F)C4)cs3)CC2)n1` (stereo not drawn) [Compound 82, 1-(4-(4-(5-(2-chloro-6-(trifluoromethyl)phenyl)-4,5-dihydroisoxazol-3-yl)thiazol-2-yl)piperidin-1-yl)-2-((4-methoxypyrimidin-2-yl)oxy)ethan-1-one], the inhibition of growth at 30 ppm was not below 70%.
As for `COc1ccnc(OCC(=O)N2CCC(c3nc(C4=NOC(c5c(O)cccc5Cl)C4)cs3)CC2)n1` (stereo not drawn) [Compound 83, 1-(4-(4-(5-(2-chloro-6-hydroxyphenyl)-4,5-dihydroisoxazol-3-yl)thiazol-2-yl)piperidin-1-yl)-2-((4-methoxypyrimidin-2-yl)oxy)ethan-1-one], the inhibition of growth at 30 ppm was not below 70%.
For the molecule `O=C(COc1nccc(C(F)(F)F)n1)N1CCC(c2nc(C3=NOC(c4c(Cl)cccc4C(F)(F)F)C3)cs2)CC1` (stereo not drawn) [Compound 84, 1-(4-(4-(5-(2-chloro-6-(trifluoromethyl)phenyl)-4,5-dihydroisoxazol-3-yl)thiazol-2-yl)piperidin-1-yl)-2-((4-(trifluoromethyl)pyrimidin-2-yl)oxy)ethan-1-one], the inhibition of growth at 30 ppm was not below 70%.
Turning to `O=C(COc1nccc(C(F)(F)F)n1)N1CCC(c2nc(C3=NOC(c4c(O)cccc4Cl)C3)cs2)CC1` (stereo not drawn) [Compound 85, 1-(4-(4-(5-(2-chloro-6-hydroxyphenyl)-4,5-dihydroisoxazol-3-yl)thiazol-2-yl)piperidin-1-yl)-2-((4-(trifluoromethyl)pyrimidin-2-yl)oxy)ethan-1-one], the inhibition of growth at 30 ppm was not below 70%.
As for `O=C(COc1cnc(C(F)(F)F)cn1)N1CCC(c2nc(C3=NOC(c4c(Cl)cccc4Cl)C3)cs2)CC1` (stereo not drawn) [Compound 88, 1-(4-(4-(5-(2,6-dichlorophenyl)-4,5-dihydroisoxazol-3-yl)thiazol-2-yl)piperidin-1-yl)-2-((5-(trifluoromethyl)pyrazin-2-yl)oxy)ethan-1-one], the inhibition of growth at 30 ppm is not below 70%.
As for `N#Cc1cccc(Cl)c1C1CC(c2csc(C3CCN(C(=O)COc4cnc(C(F)(F)F)cn4)CC3)n2)=NO1` (stereo not drawn) [Compound 93, 3-chloro-2-(3-(2-(1-(2-((5-(trifluoromethyl)pyrazin-2-yl)oxy)acetyl)piperidin-4-yl)thiazol-4-yl)-4,5-dihydroisoxazol-5-yl)benzonitrile], the inhibition of growth at 30 ppm was not below 70%.
As to `N#Cc1nccc(OCC(=O)N2CCC(c3nc(C4=NOC(c5c(O)cccc5Cl)C4)cs3)CC2)n1` (stereo not drawn) [Compound 95, 4-(2-(4-(4-(5-(2-chloro-6-hydroxyphenyl)-4,5-dihydroisoxazol-3-yl)thiazol-2-yl)piperidin-1-yl)-2-oxoethoxy)pyrimidine-2-carbonitrile], the inhibition of growth at 30 ppm was not below 70%.
As to `COc1nccnc1OCC(=O)N1CCC(c2csc(C3=NOC(c4c(F)cccc4Cl)C3)n2)CC1` (stereo not drawn) [Compound 97, 1-(4-(2-(5-(2-chloro-6-fluorophenyl)-4,5-dihydroisoxazol-3-yl)thiazol-4-yl)piperidin-1-yl)-2-((3-methoxypyrazin-2-yl)oxy)ethan-1-one], the inhibition of growth at 30 ppm was not below 70%.
Turning to `COc1nc(OC)nc(OCC(=O)N2CCC(c3nc(C4=NOC(c5c(F)cccc5Cl)C4)cs3)CC2)n1` (stereo not drawn) [Compound 98, 1-(4-(4-(5-(2-chloro-6-fluorophenyl)-4,5-dihydroisoxazol-3-yl)thiazol-2-yl)piperidin-1-yl)-2-((4,6-dimethoxy-1,3,5-triazin-2-yl)oxy)ethan-1-one], the inhibition of growth at 30 ppm was not below 70%.
The figure for `COc1cncc(OCC(=O)N2CCC(c3nc(C4=NOC(c5c(Cl)cccc5Cl)C4)cs3)CC2)n1` (stereo not drawn) [Compound 99, 1-(4-(4-(5-(2,6-dichlorophenyl)-4,5-dihydroisoxazol-3-yl)thiazol-2-yl)piperidin-1-yl)-2-((6-methoxypyrazin-2-yl)oxy)ethan-1-one] is not below 70%.
In the case of `COc1cncc(OCC(=O)N2CCC(c3nc(C4=NOC(c5c(Cl)cccc5C#N)C4)cs3)CC2)n1` (stereo not drawn) [Compound 100, 3-chloro-2-(3-(2-(1-(2-((6-methoxypyrazin-2-yl)oxy)acetyl)piperidin-4-yl)thiazol-4-yl)-4,5-dihydroisoxazol-5-yl)benzonitrile], the inhibition of growth at 30 ppm is not below 70%.
For `COc1cncc(OCC(=O)N2CCC(c3nc(C4=NOC(c5c(F)cccc5Cl)C4)cs3)CC2)n1` (stereo not drawn) [Compound 101, 1-(4-(4-(5-(2-chloro-6-fluorophenyl)-4,5-dihydroisoxazol-3-yl)thiazol-2-yl)piperidin-1-yl)-2-((6-methoxypyrazin-2-yl)oxy)ethan-1-one] the value was not below 70%; for `COc1cncc(OCC(=O)N2CCC(c3nc(C4=NOC(c5c(Cl)cccc5C(F)(F)F)C4)cs3)CC2)n1` (stereo not drawn) [Compound 102, 1-(4-(4-(5-(2-chloro-6-(trifluoromethyl)phenyl)-4,5-dihydroisoxazol-3-yl)thiazol-2-yl)piperidin-1-yl)-2-((6-methoxypyrazin-2-yl)oxy)ethan-1-one], not below 70%.
